Like-named read-outs stand apart in the source and are kept apart here.
Key:
[1] = Plasma protein binding, equilibrium dialysis (RED device); type: in vitro ADME, human; conditions: read-out: Fup (unbound fraction in plasma)
Procedure: Plasma protein binding was determined with equilibrium dialysis method using the Rapid Equilibration Dialysis (RED) device (Thermo Fisher Catalog # 90006). The assay was performed using manufacturer’s procedures. Briefly, plasma spiked with a test compound (5 µM) was added to the plasma chamber of the RED device. Blank potassium phosphate buffer (100 mM) was added to the buffer chamber of the RED device and the plate was incubated at 37°C. Aliquots of the buffer and the plasma were taken at 0 and 4 h, and the concentrations of free and bound test compounds were determined using the previously described LC-MS method ([Shah et al., 2016]).

[2] = PBPK model (GastroPlus): simulation and model parameters incl. permeability surface product and scaled metabolic kinetics, hamster; conditions: for Liver Vmax / Plasma k: in vivo (scaled)
Procedure: CL in vitro,app expressed as mL/min/mg microsomes were scaled to the predicted CLintrinsic using scaling factor (SF), microsome level and liver weight as indicated below: CLintrinsic=CLin vitro,app×SF×liver weight×microsome level per gram liver
All modeling and simulation were carried out using GastroPlus version 9.5 (Simulations Plus Inc., CA). Physiochemical parameters including blood-to-plasma ratio (Rbp), pKa, and logP were predicted by ADMET predictor (Simulations Plus Inc., CA). Physiologies of all species, including organ weights, volumes, tissue compositions, and blood perfusion rates, were generated by the program’s internal module. Tissue intracellular unbound fractions were generated by GastroPlus based on predicted or experimentally determined physiochemical and chemical-biological parameters including pKa, logP, plasma unbound fractions (Fup), Rbp, solubility, and PAMPA permeability. The PBPK model structure is illustrated in Figure 2 and its parameters are summarized in Supplementary Tables S3–6. The default absorption and dissolution model was applied and effective intestine permeability was predicted by a built-in correlation from the experimental PAMPA permeability result. Parameters including partition coefficients in tissue (Kp), CLintrinsic, and permeability surface area product (PStc) were estimated by fitting the model to experimental data using the optimization module in GastroPlus with objective function weights at 1/(y + ŷ)^2, where y is the observed value and ŷ is the predicted value.
Experimental measurements of hamster plasma pharmacokinetics and lung concentrations were used in the model validation.

[3] = PBPK model (GastroPlus): simulation and model parameters incl. permeability surface product and scaled metabolic kinetics, human; conditions: for Liver Vmax: in vivo (scaled)
[4] = Metabolic stability in plasma; conditions: for Plasma k: mouse, in vitro
[5] = Metabolic stability in plasma; conditions: for Plasma k: hamster, in vitro
[6] = Metabolic stability in plasma; conditions: for Plasma k: human, in vitro
Procedure: The incubation was carried out at 37°C for 15, 30, and 60 min. The reaction in plasma or liver microsomes was quenched by adding 200 μL of cold acetonitrile (containing 100 ng/mL tolbutamide as internal standard). After a 20 min centrifugation at 3000 rpm, 4°C, the supernatant was transferred to an analysis plate and analyzed by UPLC-MS/MS as described in Section 2.4.2.
The substrate disappearance half-life (t1/2) was estimated by regression analysis of the semi-logarithmic (ln Conc vs. time) plots.

[7] = conversion to Nc, in vivo, predicted from in vitro liver parameters

Q: Which fraction unbound at 4 h, 5 µM ([1]; human and rodent (rodent predicted), rodent (predicted) and human plasma) does the source give for `O=C(Nc1ccc([N+](=O)[O-])cc1Cl)c1cc(Cl)ccc1OC(=O)N1CCNCC1` [PDN] here?
A: 0.12 to 0.15

Q: What about the fraction unbound at 4 h, 5 µM ([1]; human, human plasma, experimental) of the same molecule?
A: 0.152

Q: And the “Liver Vmax” value ([2]; conversion to Nc)?
A: 0.0130 mg/s/mg microsomes

Q: What about the Plasma k ([2]; conversion to Nc) of the same molecule?
A: 0.0052 s⁻¹

Q: What about the “Gut Vmax” value [2, 7] of the same molecule?
A: 0.0004 mg/s/mg microsomes

Q: And the “Liver Vmax” value ([2]; conversion to Others)?
A: 0.1649 mg/s/mg microsomes

Q: What about the Plasma k ([2]; conversion to Others) of the same molecule?
A: 0.0189 s⁻¹

Q: And the “Liver Vmax” value ([3]; conversion to Nc)?
A: 0.0004 mg/s/mg microsomes

Q: What about the “Gut Vmax” value [3, 7] of the same molecule?
A: 0.00001 mg/s/mg microsomes

Q: And the “Liver Vmax” value ([3]; conversion to Others)?
A: 0.0164 mg/s/mg microsomes

Q: And the Plasma k ([4]; conversion to Nc)?
A: 0.0058 s⁻¹

Q: And the Plasma k ([4]; conversion to Others)?
A: 0.0062 s⁻¹

Q: And the “kin vitro,app, PDN-total (total depletion of PDN)” value (“kin vitro,app, PDN-total” for short) ([4]; mouse plasma, 37°C)?
A: 0.0120 ± 0.0015 min⁻¹

Q: What about the Plasma k ([5]; conversion to Nc) of the same molecule?
A: 0.0045 s⁻¹

Q: What about the Plasma k ([5]; conversion to Others) of the same molecule?
A: 0.0146 s⁻¹

Q: And the “kin vitro,app, PDN-total” value ([5]; hamster plasma, 37°C)?
A: 0.0191 ± 0.0044 min⁻¹

Q: What about the Plasma k ([6]; conversion to Nc) of the same molecule?
A: 0.00026 s⁻¹

Q: What about the Plasma k ([6]; conversion to Others) of the same molecule?
A: 0.0022 s⁻¹

Q: What about the “kin vitro,app, PDN-total” value ([6]; human plasma, 37°C) of the same molecule?
A: 0.0025 ± 0.0013 min⁻¹

Reference: article PMC10126473 (Frontiers in Pharmacology, 2023)
